From US5736558A, “4-(6-fluoro-1,2-benzisoxazolyl)-1 piperidinyl-propoxy-chromen-4-one-one-derivatives, their preparation and their use in the treatment of psychosis, schizophrenia and anxiety” (Ferrer Internacional, S.A., priority 1995, dated 1998)
Read-outs that look alike come from different tables or passages of the source.

Columns and labels:
[1] = system: apomorphine-induced climbing behaviour; test: Inhibition test of apomorphine-induced climbing behaviour; assay type: in vivo, male Swiss mice; conditions: Mus musculus, 1 h, read-out: ID50 Climbing
Procedure: The compounds were compared in Animal Pharmacology by the inhibition test of apomorphine-induced climbing behaviour
For the practical performance of this experiment, male Swiss mice weighing 22-24 g were used. One week prior to experiment, animals were kept in our facilities at a temperature of 20°-22° C. and 12/12 h light-dark cycle, and had free access to food and water. Two hours prior to experiment, the animals were placed in individual cages without access to food.
Animals were administered orally with test drug or 0.25% agar at time 0. After 60 minutes, apomorphine was subcutaneously injected at a dose of 1 mg/kg, and after further 70 minutes the animal's behaviour was assessed. Two additional assessments were performed at 10-min intervals.
For assessment, each animal was placed on the bottom of a small upright box (11×7.5×4.5 cm). The walls of the box were made of translucent methacrylate except one of the lateral surfaces (7.5 cm wide) which was a 3-mm wire mesh. The position of the animal was scored for 2 minutes according to the following criteria: 0=four paws on the floor; 1=three paws on the floor; 2=two paws on the floor; 3=one paw on the floor; and 4=four paws holding the wire mesh. If an animal keeps several positions within the 2-min observation, the seconds elapsed in each position will be recorded. Finally, mean scoring was calculated.

[2] = in vivo; conditions: rat, po
[3] = target: T1, 5HT1a receptors (Rattus norvegicus, UniProt P19327); test: Specific binding to 5HT1a receptors ([3H]5-OH-DPAT, rat cortex membrane)
T1 construct: membrane corresponding to 1 mg of rat cortex; from tissue; host or cells: rat cortex membrane
T1 sequence (P19327 1-422): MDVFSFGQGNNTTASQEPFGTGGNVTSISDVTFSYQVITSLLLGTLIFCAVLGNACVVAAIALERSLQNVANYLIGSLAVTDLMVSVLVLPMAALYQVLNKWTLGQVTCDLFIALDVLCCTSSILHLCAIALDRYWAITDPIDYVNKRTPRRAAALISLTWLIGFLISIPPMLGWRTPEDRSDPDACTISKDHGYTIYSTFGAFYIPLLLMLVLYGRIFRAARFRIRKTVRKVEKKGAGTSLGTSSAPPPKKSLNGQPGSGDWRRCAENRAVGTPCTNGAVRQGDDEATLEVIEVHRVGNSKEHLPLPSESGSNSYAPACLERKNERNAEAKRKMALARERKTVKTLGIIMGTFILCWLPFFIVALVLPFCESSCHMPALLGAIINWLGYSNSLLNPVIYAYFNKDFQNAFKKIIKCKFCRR
Procedure: (§1) Specific binding to D2, 5HT2 and, 5HT1a receptors was tested as follows:
5HT1a receptors: A 1 nM solution of radioactive […], which acts as a specific ligand, was incubated with the membrane corresponding to 1 mg of rat cortex for 20 min at 35° C. buffered at pH 7.4 with Tris.HCl.
Non-specific binding was then determined by addition of a 20 micromolar concentration of unlabelled buspirone. IC50 (inhibitory concentration 50%) was calculated from the inhibition rate of the specific binding obtained by addition of eleven different concentrations of the compounds to be tested. After the incubation was completed, the sample was filtered through a glass fiber filter and then washed three times with Tris.HCl buffer. The amount of receptor-bound radioactivity was retained on the membrane and determined by liquid scintillation counting.
(§2) The biochemical results expressed as IC50 in molar concentrations are presented in Table 1 comparatively to the compound of Patent ES 9400581. A higher affinity of the present compounds to the three receptors is observed.

[4] = target: T2, 5HT2 receptors (Rattus norvegicus, UniProt P14842); test: Specific binding to 5HT2 receptors ([3H]ketanserin, rat cortex membrane); conditions: 0.5 nM [3H]ketanserin, 30 min, 35° C., pH 7.4
T2 construct: membrane corresponding to 1 mg of rat cortex; from tissue; host or cells: rat cortex membrane
Procedure: as §1
The amount of receptor-bound radioactivity was retained on the membrane and determined by liquid scintillation counting.
as §2

[5] = target: T3, D2 receptors (Rattus norvegicus, UniProt P61169); test: Specific binding to D2 receptors ([3H]spiperone, rat striatum membrane)
T3 construct: membrane corresponding to 20 mg of rat striatum; from tissue; host or cells: rat striatum membrane
Procedure: D2 receptors: A 2-nM solution of radioactive spiperone ([^3 H]spiperone), which acts as a specific ligand, was incubated with the membrane corresponding to 20 mg of rat striatum for 20 min at 35° C. buffered at pH 7.4 with Tris.HCl. The non-specific binding was then determined by addition of a micromolar concentration of unlabelled spiperone. […] After the incubation was completed, the sample was filtered through a glass fiber filter and then washed three times with Tris.HCl buffer. The amount of receptor-bound radioactivity was retained on the membrane and determined by liquid scintillation counting.

[6] = oral, mice, apomorphine 1 mg/kg s.c. after 60 min
[7] = 1 nM [3H]5-OH-DPAT, rat cortex, 20 min, 35° C., pH 7.4, read-out: IC50 5HT1a

T2 sequence (P14842 whole entry): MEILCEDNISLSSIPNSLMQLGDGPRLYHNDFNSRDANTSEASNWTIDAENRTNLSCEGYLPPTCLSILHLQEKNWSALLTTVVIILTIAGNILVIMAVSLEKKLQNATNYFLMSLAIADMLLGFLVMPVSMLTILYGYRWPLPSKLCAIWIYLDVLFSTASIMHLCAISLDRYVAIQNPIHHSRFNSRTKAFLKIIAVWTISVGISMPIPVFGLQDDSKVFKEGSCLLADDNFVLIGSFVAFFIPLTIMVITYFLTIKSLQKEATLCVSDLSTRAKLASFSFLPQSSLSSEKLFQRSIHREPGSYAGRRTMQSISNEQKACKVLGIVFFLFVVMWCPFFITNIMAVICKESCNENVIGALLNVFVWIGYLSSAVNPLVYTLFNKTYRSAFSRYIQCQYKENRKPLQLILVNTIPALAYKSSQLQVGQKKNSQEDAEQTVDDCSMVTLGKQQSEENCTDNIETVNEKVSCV
T3 sequence (P61169 whole entry): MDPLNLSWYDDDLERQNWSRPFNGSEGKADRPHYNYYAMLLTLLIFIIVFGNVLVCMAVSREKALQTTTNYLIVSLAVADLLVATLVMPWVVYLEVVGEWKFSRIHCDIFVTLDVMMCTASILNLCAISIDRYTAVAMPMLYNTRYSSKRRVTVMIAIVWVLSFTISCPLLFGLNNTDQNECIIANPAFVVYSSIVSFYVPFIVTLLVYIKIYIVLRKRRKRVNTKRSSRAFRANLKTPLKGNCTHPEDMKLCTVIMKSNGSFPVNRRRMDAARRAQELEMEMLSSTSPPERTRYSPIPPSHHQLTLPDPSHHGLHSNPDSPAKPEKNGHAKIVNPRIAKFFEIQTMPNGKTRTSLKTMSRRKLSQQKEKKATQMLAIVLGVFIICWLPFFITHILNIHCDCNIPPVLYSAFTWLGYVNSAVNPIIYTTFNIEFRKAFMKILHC

Row | Compound | ED50 [1, 6] [mg/kg] | ED50 [2] [mg/kg] | selectivity ratio [2] | IC50 [3, 7] [nM] | IC50 [4] [nM] | ED50 ([1]; po) [mg/kg] | IC50 [3] [nM] | IC50 [5] [nM] | IC50 ([5]; 2 nM [3H]spiperone, rat striatum, 20 min, 35° C., pH 7.4, read-out: IC50 D2) [nM]
1 | Cc1coc2cc(OCCCN3CCC(c4noc5cc(F)ccc45)CC3)ccc2c1=O [Ex. 2, 7-[3-[4-(6-fluoro-1,2-benzisoxazole-3-yl)piperidin-1-yl]propoxy]-3-methyl-chromen-4-one] | 0.4 | 2.9 | 7.25 | 249 | 11.3 | – | – | – | –
2 | O=c1c(CO)coc2cc(OCCCN3CCC(c4noc5cc(F)ccc45)CC3)ccc12 [Ex. 3, 7-[3-[4-(6-fluoro-1,2-benzisoxazole-3-yl)piperidin-1-yl]propoxy]-3-(hydroxymethyl)-chromen-4-one] | – | 3.8 | 15.2 | – | 4.71 | 0.25 | 152 | 11.6 | –
3 | O=c1ccoc2cc(OCCCN3CCC(c4noc5cc(F)ccc45)CC3)ccc12 [Ex. 1, 7-[3-[4-(6-fluoro-1,2-benzisoxazole-3-yl)piperidin-1-yl]propoxy]chromen-4-one] | 2.7 | 11.2 | 4.17 | 383 | 11.2 | – | – | – | 30
